In ChEMBL document CHEMBL1124300, “Deletion sequences of salmon calcitonin that retain the essential biological and conformational features of the intact molecule” (1988) one finds Hypocalcemic activity data, which are given here for 8 compounds.

SMILES strings stand for the structures. Residues, ends and D or L forms follow the SMILES beside them.

The test system of this assay is Rattus norvegicus. Description: In vivo hypocalcemic activity measuring the hormone-induced decrease of blood calcium levels in rats. The format is functional.
Take `CC(C)C[C@H](NC(=O)[C@H](CCCCN)NC(=O)CNC(=O)[C@H](CC(C)C)NC(=O)[C@@H](NC(=O)[C@@H]1CSSC[C@H](N)C(=O)N[C@@H](CO)C(=O)N[C@@H](CC(N)=O)C(=O)N[C@@H](CC(C)C)C(=O)N[C@@H](CO)C(=O)N[C@@H]([C@@H](C)O)C(=O)N1)C(C)C)C(=O)N[C@@H](CO)C(=O)N[C@@H](CCC(N)=O)C(=O)N[C@@H](CCC(=O)O)C(=O)N[C@@H](CC(C)C)C(=O)N[C@@H](Cc1c[nH]cn1)C(=O)N[C@@H](CCCCN)C(=O)N[C@@H](CC(C)C)C(=O)N[C@H](C(=O)N[C@@H](Cc1ccc(O)cc1)C(=O)N1CCC[C@H]1C(=O)N[C@@H](CCCN=C(N)N)C(=O)N[C@H](C(=O)N[C@@H](CC(N)=O)C(=O)N[C@H](C(=O)NCC(=O)N[C@@H](CO)C(=O)NCC(=O)N[C@H](C(=O)N1CCC[C@H]1C(N)=O)[C@@H](C)O)[C@@H](C)O)[C@@H](C)O)[C@@H](C)O` (HELM PEPTIDE1{C.S.N.L.S.T.C.V.L.G.K.L.S.Q.E.L.H.K.L.T.Y.P.R.T.N.T.G.S.G.T.P.[am]}$PEPTIDE1,PEPTIDE1,1:R3-7:R3$$$V2.0): the Hypocalcemic activity was 4000 IU mg-1.
The same measure for `CC(C)C[C@H](NC(=O)[C@H](CCCCN)NC(=O)CNC(=O)[C@H](CC(C)C)NC(=O)[C@@H](NC(=O)[C@@H]1CSSC[C@H](N)C(=O)N[C@@H](CO)C(=O)N[C@@H](CC(N)=O)C(=O)N[C@@H](CC(C)C)C(=O)N[C@@H](CO)C(=O)N[C@@H]([C@@H](C)O)C(=O)N1)C(C)C)C(=O)N[C@@H](CO)C(=O)N[C@@H](CCC(N)=O)C(=O)N[C@@H](CCC(=O)O)C(=O)N[C@@H](CC(C)C)C(=O)N[C@@H](Cc1c[nH]cn1)C(=O)N[C@@H](CCCCN)C(=O)N[C@@H](CC(C)C)C(=O)N[C@@H](CCC(N)=O)C(=O)N[C@H](C(=O)N[C@@H](Cc1ccc(O)cc1)C(=O)N1CCC[C@H]1C(=O)N[C@@H](CCCNC(=N)N)C(=O)N[C@H](C(=O)N[C@@H](CC(N)=O)C(=O)N[C@H](C(=O)NCC(=O)N[C@@H](CO)C(=O)NCC(=O)N[C@H](C(=O)N1CCC[C@H]1C(N)=O)[C@@H](C)O)[C@@H](C)O)[C@@H](C)O)[C@@H](C)O` [CALCITONIN SALMON]: 4500 IU mg-1.
Under `CC(C)C[C@H](NC(=O)[C@H](CCCCN)NC(=O)CNC(=O)[C@H](CC(C)C)NC(=O)[C@@H](NC(=O)[C@@H]1CSSC[C@H](N)C(=O)N[C@@H](CO)C(=O)N[C@@H](CC(N)=O)C(=O)N[C@@H](CC(C)C)C(=O)N[C@@H](CO)C(=O)N[C@@H]([C@@H](C)O)C(=O)N1)C(C)C)C(=O)N[C@@H](CO)C(=O)N[C@@H](CCC(N)=O)C(=O)N[C@@H](CCC(=O)O)C(=O)N[C@@H](CC(C)C)C(=O)N[C@@H](Cc1c[nH]cn1)C(=O)N[C@@H](CCCCN)C(=O)N[C@@H](Cc1ccc(O)cc1)C(=O)N1CCC[C@H]1C(=O)N[C@@H](CCCN=C(N)N)C(=O)N[C@H](C(=O)N[C@@H](CC(N)=O)C(=O)N[C@H](C(=O)NCC(=O)N[C@@H](CO)C(=O)NCC(=O)N[C@H](C(=O)N1CCC[C@H]1C(N)=O)[C@@H](C)O)[C@@H](C)O)[C@@H](C)O` (HELM PEPTIDE1{C.S.N.L.S.T.C.V.L.G.K.L.S.Q.E.L.H.K.Y.P.R.T.N.T.G.S.G.T.P.[am]}$PEPTIDE1,PEPTIDE1,1:R3-7:R3$$$V2.0) stands 7100 IU mg-1; under `CC(C)C[C@H](NC(=O)[C@H](CCCCN)NC(=O)CNC(=O)[C@H](CC(C)C)NC(=O)[C@@H](NC(=O)[C@@H]1CSSC[C@H](N)C(=O)N[C@@H](CO)C(=O)N[C@@H](CC(N)=O)C(=O)N[C@@H](CC(C)C)C(=O)N[C@@H](CO)C(=O)N[C@@H]([C@@H](C)O)C(=O)N1)C(C)C)C(=O)N[C@@H](CO)C(=O)N[C@@H](CCC(N)=O)C(=O)N[C@@H](CCC(=O)O)C(=O)N[C@@H](CC(C)C)C(=O)N[C@@H](Cc1c[nH]cn1)C(=O)N[C@@H](CCCCN)C(=O)N[C@@H](CC(C)C)C(=O)N[C@@H](CCC(N)=O)C(=O)N[C@@H](Cc1ccc(O)cc1)C(=O)N1CCC[C@H]1C(=O)N[C@@H](CCCN=C(N)N)C(=O)N[C@H](C(=O)N[C@@H](CC(N)=O)C(=O)N[C@H](C(=O)NCC(=O)N[C@@H](CO)C(=O)NCC(=O)N[C@H](C(=O)N1CCC[C@H]1C(N)=O)[C@@H](C)O)[C@@H](C)O)[C@@H](C)O` (HELM PEPTIDE1{C.S.N.L.S.T.C.V.L.G.K.L.S.Q.E.L.H.K.L.Q.Y.P.R.T.N.T.G.S.G.T.P.[am]}$PEPTIDE1,PEPTIDE1,1:R3-7:R3$$$V2.0), 5500 IU mg-1.
Under `CC(C)C[C@H](NC(=O)[C@H](CCCCN)NC(=O)CNC(=O)[C@H](CC(C)C)NC(=O)[C@@H](NC(=O)[C@@H]1CSSC[C@H](N)C(=O)N[C@@H](CO)C(=O)N[C@@H](CC(N)=O)C(=O)N[C@@H](CC(C)C)C(=O)N[C@@H](CO)C(=O)N[C@@H]([C@@H](C)O)C(=O)N1)C(C)C)C(=O)N[C@@H](CO)C(=O)N[C@@H](CCC(N)=O)C(=O)N[C@@H](CCC(=O)O)C(=O)N[C@@H](CC(C)C)C(=O)N[C@@H](Cc1c[nH]cn1)C(=O)N[C@@H](CCCCN)C(=O)N[C@@H](CCC(N)=O)C(=O)N[C@H](C(=O)N[C@@H](Cc1ccc(O)cc1)C(=O)N1CCC[C@H]1C(=O)N[C@@H](CCCN=C(N)N)C(=O)N[C@H](C(=O)N[C@@H](CC(N)=O)C(=O)N[C@H](C(=O)NCC(=O)N[C@@H](CO)C(=O)NCC(=O)N[C@H](C(=O)N1CCC[C@H]1C(N)=O)[C@@H](C)O)[C@@H](C)O)[C@@H](C)O)[C@@H](C)O` (HELM PEPTIDE1{C.S.N.L.S.T.C.V.L.G.K.L.S.Q.E.L.H.K.Q.T.Y.P.R.T.N.T.G.S.G.T.P.[am]}$PEPTIDE1,PEPTIDE1,1:R3-7:R3$$$V2.0) stands 8000 IU mg-1; under `CC(C)C[C@H](NC(=O)[C@H](CCCCN)NC(=O)CNC(=O)[C@H](CC(C)C)NC(=O)[C@@H](NC(=O)[C@@H]1CSSC[C@H](N)C(=O)N[C@@H](CO)C(=O)N[C@@H](CC(N)=O)C(=O)N[C@@H](CC(C)C)C(=O)N[C@@H](CO)C(=O)N[C@@H]([C@@H](C)O)C(=O)N1)C(C)C)C(=O)N[C@@H](CO)C(=O)N[C@@H](CCC(N)=O)C(=O)N[C@@H](CCC(=O)O)C(=O)N[C@@H](CC(C)C)C(=O)N[C@@H](Cc1c[nH]cn1)C(=O)N[C@@H](CCCCN)C(=O)N[C@@H](CC(C)C)C(=O)N[C@@H](CCC(N)=O)C(=O)N[C@H](C(=O)N1CCC[C@H]1C(=O)N[C@@H](CCCN=C(N)N)C(=O)N[C@H](C(=O)N[C@@H](CC(N)=O)C(=O)N[C@H](C(=O)NCC(=O)N[C@@H](CO)C(=O)NCC(=O)N[C@H](C(=O)N1CCC[C@H]1C(N)=O)[C@@H](C)O)[C@@H](C)O)[C@@H](C)O)[C@@H](C)O` (HELM PEPTIDE1{C.S.N.L.S.T.C.V.L.G.K.L.S.Q.E.L.H.K.L.Q.T.P.R.T.N.T.G.S.G.T.P.[am]}$PEPTIDE1,PEPTIDE1,1:R3-7:R3$$$V2.0), 5200 IU mg-1.
`CC(C)C[C@H](NC(=O)[C@H](CCCCN)NC(=O)CNC(=O)[C@H](CC(C)C)NC(=O)[C@@H](NC(=O)[C@@H]1CSSC[C@H](N)C(=O)N[C@@H](CO)C(=O)N[C@@H](CC(N)=O)C(=O)N[C@@H](CC(C)C)C(=O)N[C@@H](CO)C(=O)N[C@@H]([C@@H](C)O)C(=O)N1)C(C)C)C(=O)N[C@@H](CO)C(=O)N[C@@H](CCC(N)=O)C(=O)N[C@@H](CCC(=O)O)C(=O)N[C@@H](CC(C)C)C(=O)N[C@@H](Cc1c[nH]cn1)C(=O)N[C@@H](CCCCN)C(=O)N[C@H](C(=O)N[C@@H](Cc1ccc(O)cc1)C(=O)N1CCC[C@H]1C(=O)N[C@@H](CCCN=C(N)N)C(=O)N[C@H](C(=O)N[C@@H](CC(N)=O)C(=O)N[C@H](C(=O)NCC(=O)N[C@@H](CO)C(=O)NCC(=O)N[C@H](C(=O)N1CCC[C@H]1C(N)=O)[C@@H](C)O)[C@@H](C)O)[C@@H](C)O)[C@@H](C)O` (HELM PEPTIDE1{C.S.N.L.S.T.C.V.L.G.K.L.S.Q.E.L.H.K.T.Y.P.R.T.N.T.G.S.G.T.P.[am]}$PEPTIDE1,PEPTIDE1,1:R3-7:R3$$$V2.0): the Hypocalcemic activity is given as 6400 IU mg-1.
Under `CC(C)C[C@H](NC(=O)[C@H](CCCCN)NC(=O)CNC(=O)[C@H](CC(C)C)NC(=O)[C@@H](NC(=O)[C@@H]1CSSC[C@H](N)C(=O)N[C@@H](CO)C(=O)N[C@@H](CC(N)=O)C(=O)N[C@@H](CC(C)C)C(=O)N[C@@H](CO)C(=O)N[C@@H]([C@@H](C)O)C(=O)N1)C(C)C)C(=O)N[C@@H](CO)C(=O)N[C@@H](CCC(N)=O)C(=O)N[C@@H](CCC(=O)O)C(=O)N[C@@H](CC(C)C)C(=O)N[C@@H](Cc1c[nH]cn1)C(=O)N[C@@H](CCCCN)C(=O)N1CCC[C@H]1C(=O)N[C@@H](CCCN=C(N)N)C(=O)N[C@H](C(=O)N[C@@H](CC(N)=O)C(=O)N[C@H](C(=O)NCC(=O)N[C@@H](CO)C(=O)NCC(=O)N[C@H](C(=O)N1CCC[C@H]1C(N)=O)[C@@H](C)O)[C@@H](C)O)[C@@H](C)O` (HELM PEPTIDE1{C.S.N.L.S.T.C.V.L.G.K.L.S.Q.E.L.H.K.P.R.T.N.T.G.S.G.T.P.[am]}$PEPTIDE1,PEPTIDE1,1:R3-7:R3$$$V2.0) stands 6300 IU mg-1.
